The values that follow come from patent publication US11510886B2, “Metformin amino acid compounds and methods of using the same” (Laboratorios Silancs S.A. DE C.V., priority 2016, dated 2022).

For one assay, the system named is insulin receptor. As to the kind of experiment: Insulin receptor β subunit in plasma membrane of C2C12 myotubes. The format is cell-based, Mice. The conditions noted are these: 10 mM, 3 hours (FIG. 76), listed as SLN10. As to the method: FIG. 76. Metformin lysinate promotes the accumulation of insulin receptor β subunit in plasma membrane. C2C12 cells were differentiated for 5 days in DMEM supplemented with 2% horse serum; then, cultures were treated for 3 hours with SLN1 or SLN10 10 mM, or with vehicle (control) at 37° C. Similar quantities of each extract were analyzed by Western blot with insulin receptor subunit (IRP) specific antibodies.

A further assay concerns the target T1, GPBP (Homo sapiens, UniProt Q9Y5P4).
T1 sequence (Q9Y5P4 1-624): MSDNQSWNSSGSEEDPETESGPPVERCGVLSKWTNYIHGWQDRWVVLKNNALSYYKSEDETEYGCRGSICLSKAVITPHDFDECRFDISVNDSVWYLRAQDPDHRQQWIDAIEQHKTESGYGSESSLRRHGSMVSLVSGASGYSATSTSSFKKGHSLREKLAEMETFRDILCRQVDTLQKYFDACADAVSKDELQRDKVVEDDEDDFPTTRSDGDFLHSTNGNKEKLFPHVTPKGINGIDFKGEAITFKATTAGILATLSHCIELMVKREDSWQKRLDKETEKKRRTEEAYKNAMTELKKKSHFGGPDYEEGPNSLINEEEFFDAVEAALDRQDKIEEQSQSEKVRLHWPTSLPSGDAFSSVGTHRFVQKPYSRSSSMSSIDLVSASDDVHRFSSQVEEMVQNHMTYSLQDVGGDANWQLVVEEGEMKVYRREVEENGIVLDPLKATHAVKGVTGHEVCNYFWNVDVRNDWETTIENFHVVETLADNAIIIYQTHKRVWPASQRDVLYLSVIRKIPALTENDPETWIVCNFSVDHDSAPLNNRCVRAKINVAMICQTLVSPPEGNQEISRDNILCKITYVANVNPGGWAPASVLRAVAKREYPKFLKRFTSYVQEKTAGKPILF
The format is binding.

Assay [1] concerns AMPK and GLUT4 in NIH-3T3-L1 adipocytes. In words: AMPK activation and GLUT4 in plasma membrane of L1 adipocytes (Western blot). To be noted: 10 mM, 3 hours. It counts as cell-based, Mice. The procedure: . 2 days in culture media supplemented with insulin 1 μg/mL; and 6 days in culture media. […]. Similar quantities of each extract were analyzed using Western blot (SDS-PAGE and electrotransfer), with the indicated antibodies and chemiluminescence (ECL Prime, GE Healthcare). FIGS. 70B-C show pictures of L1 adipocyte cultures treated as in FIG. 70A and exposed to fractioning for protein extraction from plasma membrane by a procedure described above (Nishiumi & Ashida. Biosci Biotechnol Biochem. 2007; 71:2343-6). Briefly, cells were washed with PBS and collected in solution A (Tris 50 mM, pH 8.0, DTT 0.5 mM, 0.1% Nonidet P-40, PMSF 1 mM, leupeptin 5 μg/mL, aprotinin 5 μg/mL, NaF 10 mM, Na3VO4 1 mM) and lysed manually with a Dounce homogenizer (20 pestle movements). Homogenized solutions were centrifuged (1000×g, 10 minutes, 4° C.), cell precipitates were dispersed in solution A, without Nonidet P-40, stored in ice for 10 minutes, occasionally stirred, and centrifuged again (1000×g, 10 minutes, 4° C.). […]. Supernatants were stored at −80° C. until analysis. Equivalent quantities of demembrane extracts were analyzed by Western blot with anti-GLUT4 (Abcam) antibodies. […]
For orientation: A western blot detects proteins with antibodies after separation by electrophoresis.

The subject of the next assay is RAW264.7 macrophages. In words: GPBP and pro-IL-1β expression in stimulated RAW264.7 macrophages. The format is cell-based. As to the method:
FIG. 87. […] RAW264.7 macrophages cultured in DMEM, supplemented with 10% FBS and antibiotics, were treated with the indicated concentrations of either SLN1, SLN10 for 2 hours, after which LPS (1 μg/mL) was added to cultures. After incubating for 16 hours, the relative expression quantification (RQ) for GPBP was analyzed by RT-qPCR, using HPRT-1 as a normalizer and non-stimulated cells (cells) as a reference point.
FIG. 88. […] RAW264.7 macrophages were treated as shown in FIG. 87 and analyzed by flow cytometry, using for sample processing the Cytofix/Cytoperm (BD) kit, according to the manufacturer's instructions, as well as specific antibodies against GPBP (N27) and pro-IL-1β, conjugated with FITC and phycoerythrin (PE), correspondingly. The intensity of fluorescence (IF) emission median value is shown in arbitrary units (a.u.) for each of the series. Non-treated cells were used as a reference point and their corresponding isotype controls were carried out. The median is usually used in fluorescence quantitative studies to minimize the influence of extreme values that may distort the real mean value. Isotype controls were carried out to eliminate background, caused by nonspecific fluorescence; nonspecific antibodies from the same isotype of those used to detect GPBP and pro-IL-1β were used. […]

metformin lysinate: in the assay with insulin receptor, the “accumulation of insulin receptor in the plasma membrane” value is reported as “promotes the accumulation of insulin receptor in the plasma membrane”. Also, at GPBP, the “GPBP fluorescence emission at 370 nm (F370)” value is recorded as “steady reduction (extinction)”, the “Ksv (Stern-Volmer constant)” value is 108800 M⁻¹ and the “n (number of SLN10 molecules bound to GPBP)” value was 0.7. In assay [1], the AMPK activation entry is on record as “activates AMPK” and the “GLUT4 accumulation in the plasma membrane” value is “induces a GLUT4 accumulation in the plasma membrane”. Further, the “GPBP secretion induced by LPS and IC” value with RAW264.7 macrophages (FIG. 90) was “less ability to reduce GPBP secretion”. Also, the “induced expression of GPBP” value in the assay on RAW264.7 macrophages (LPS or LPS and IFN-γ, flow cytometry (FIGS. 88, 89)) is “more efficiently inhibited by SLN10”.
